{"source": "patent US10653657B2", "about": "“Method for treating hemolytic uremic syndrome” (ENZYCHEM LIFESCIENCES CORPORATION, priority 2015, dated 2020)", "key": {"STAT6 [1]": {"target": "T1, STAT6 (Homo sapiens, UniProt P42226)", "T1 construct": "endogenous in cells; host or cells: U937, A549, Jurkat", "T1 sequence (P42226 1-847)": "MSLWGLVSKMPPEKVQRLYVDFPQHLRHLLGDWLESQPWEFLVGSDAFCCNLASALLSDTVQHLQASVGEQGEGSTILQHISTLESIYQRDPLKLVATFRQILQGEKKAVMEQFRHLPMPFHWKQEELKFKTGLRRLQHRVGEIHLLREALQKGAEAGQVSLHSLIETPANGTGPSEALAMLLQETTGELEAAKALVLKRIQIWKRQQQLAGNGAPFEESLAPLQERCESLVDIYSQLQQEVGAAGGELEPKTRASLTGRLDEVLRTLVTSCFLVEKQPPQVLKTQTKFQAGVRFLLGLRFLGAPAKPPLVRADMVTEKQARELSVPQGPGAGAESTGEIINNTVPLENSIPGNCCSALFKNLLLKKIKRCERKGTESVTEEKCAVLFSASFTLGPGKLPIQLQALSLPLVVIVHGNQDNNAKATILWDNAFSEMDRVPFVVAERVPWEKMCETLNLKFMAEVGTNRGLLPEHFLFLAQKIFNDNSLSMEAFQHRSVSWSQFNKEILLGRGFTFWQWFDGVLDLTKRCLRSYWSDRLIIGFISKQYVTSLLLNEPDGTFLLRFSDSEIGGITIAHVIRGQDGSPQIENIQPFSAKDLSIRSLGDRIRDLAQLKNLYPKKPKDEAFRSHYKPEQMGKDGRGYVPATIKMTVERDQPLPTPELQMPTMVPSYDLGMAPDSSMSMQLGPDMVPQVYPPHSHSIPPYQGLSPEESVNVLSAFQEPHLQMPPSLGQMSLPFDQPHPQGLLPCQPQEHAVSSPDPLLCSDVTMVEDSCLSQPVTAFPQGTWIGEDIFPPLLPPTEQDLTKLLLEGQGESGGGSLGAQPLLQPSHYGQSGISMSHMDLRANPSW", "test": "Dephosphorylation of STAT6 (Western blot, anti-phosphorylated STAT6) in IL-4 stimulated cells", "assay_type": "cell-based", "conditions": "U937, Jurkat and A549 cells; PLAG 0.01 to 10 μg/ml; 10 ng/ml IL-4; 15 min after stimulation", "description": "Dephosphorylation of STAT6 is examined using anti-phosphorylated STAT6 in U937, A549, and Jurkat cell lysates treated with PLAG at a concentration of from 0.01 to 10 μg/ml. Phosphorylation of STAT6 is induced by treatment with 10 ng/ml of IL-4. Dephosphorylation of STAT1 is examined in the U937 cell lysate treated with PLAG (0.01 to 10 μg/ml). Phosphorylation of STAT1 is induced by 10 ng of IFN-γ treatment. Dephosphorylation of STAT1 and STAT6 is examined at 15 min after stimulation with IFN-γ and IL-4 respectively, in the PLAG pretreated cells. […] The transcriptional activity of STAT6 is decreased by the dephosphorylation of STAT6. […] No effect of PLAG on STAT1 phosphorylation is observed."}, "STAT6 [2]": {"system": "STAT6", "test": "STAT6 transcriptional activity (luciferase) in gene transfected HepG2 cells", "assay_type": "cell-based, human", "conditions": "10 ng IL-4, PLAG 0.01-10 μg/ml, 12 hour incubation", "description": "(§1) By using STAT6 inhibitor (S6I), it is confirmed that the reduction of complement 3 in HepG2 cells (human hepatocyte cell line) is regulated by STAT6. […] It is also confirmed that PLAG has selective efficacy on STAT6 over STAT1. FIG. 1 presents graphs showing STAT1 and STAT6 transcriptional activity in the PLAG treated HepG2 cells. NC refers to the unstimulated control cell. For the STAT1 assay, gene transfected HepG2 (human hepatocyte cell line) is treated with 10 ng of IFN-γ and serially diluted PLAG is added (0.01 μg/ml, 0.1 μg/ml, 1 μg/ml, and 10 μg/ml as shown) to see its effect on gene expression in the stimulated cell. For the STAT6 assay, gene transfected HepG2 cells are treated with 10 ng of IL-4 and again serially diluted PLAG is added (0.01 μg/ml, 0.1 μg/ml, 1 μg/ml, and 10 μg/ml as shown) to see its effect on gene expression in the stimulated cell. The assay is carried out following a 12 hour incubation of treated cells."}, "STAT1": {"system": "STAT1", "test": "STAT1 transcriptional activity (luciferase) in gene transfected HepG2 cells", "assay_type": "cell-based, human", "conditions": "10 ng IFN-γ, PLAG 0.01-10 μg/ml, 12 hour incubation", "description": "as §1"}, "C3 [3]": {"system": "C3", "test": "C3 expression in HMC-1 cells induced with IL-4 and TNF-α (RT-PCR / blots)", "assay_type": "cell-based, human", "description": "A blood cell line, HMC-1 (human mast cell, American Type Culture Collection, ATCC, Rockville, Md.) is incubated and maintained at 37° C. under 5% CO2 humid conditions. The medium is IMDM (Life Technologies, Karlsruhe, Germany) containing 10% Fetal Calf Serum (FCS, HyClone, Logan, Utah), 2 mM […], 100 μg/ml penicillin, 100 μg/ml streptomycin (Life Technologies). The cultured HMC-1 cells (1×10^6 cells/ml) are pre-treated with 0.1 and 1 μg/mL concentrations of PLAG, followed by treatment with IL-4 (5 ng) and/or TNF-α (10 ng) to induce cellular activities.\nThe expressed C3 and its mRNA level change are observed by using RT-PCR (Reverse Transcriptase Polymerase Chain Reaction). The RT-PCR is carried out as follows: the total RNA is separated by the standard protocol and cDNA is synthesized using AccuScript High Fidelity 1st Strand cDNA Synthesis Kit (Stratagene). Two-step RT-PCR reaction is conducted using Oligo-dT primer and reverse transcriptase, a pair of primers and Taq polymerase (Takara, Shiga, Japan). […] The product of PCR is separated using 1.5% agarose gel, dyed with ethidium bromide (EtBr), and visualized with Gel Doc 2000 UV trans-illuminator (Bio-Rad Laboratories, Hercules, Calif., USA), and the experimental data is analyzed using Quantity One software (Bio-Rad Laboratories)."}, "C3 [4]": {"system": "C3", "test": "C3 inhibition in HMC-1 cells, ELISA of expressed protein", "assay_type": "cell-based, human", "conditions": "PLAG 1, 10 and 100 μg/mL for 2 hours; activated 72 hours with 10% FBS", "description": "In a separate experiment, human mast cells (HMC-1, 1×10^5 cells/ml) are treated with PLAG at various concentrations (1, 10 and 100 μg/mL) for 2 hours. The cells are activated for 72 hours with 10% FBS (Fetal bovine serum)-containing IMDM. The decrease of C3 is confirmed by ELISA analysis of the expressed protein."}, "C3 [5]": {"system": "C3", "test": "C3 mRNA expression in HepG2 cells by RT-PCR", "assay_type": "cell-based, human", "description": "A liver cell line, HepG2 (American Type Culture Collection, ATCC, Rockville, Md.), is incubated and maintained at 37° C., 5% CO2 humid atmosphere in DMEM medium. When HepG2 cells, which are known to produce complement in culture, are treated with PLAG, the activity of complement is reduced effectively, as confirmed by RT-PCR of mRNA. In the RT-PCR, 5×10^5 HepG2 cells/ml are distributed into 12 well plates and induced C3 for 12 hours with 10% FCS. Then PLAG is added and further cultured for 2 hours. Cells are harvested and mRNA is isolated and RT-PCR is carried out with specific primers for C3; GAPDH is used as an internal control."}, "C3 [6]": {"system": "C3", "test": "C3 in culture supernatant of HepG2 cells by ELISA", "assay_type": "cell-based, human", "conditions": "PLAG 1 to 100 μg/ml; IL-4 and TNF-α 1 hr, then 18 hr at 37° C.", "description": "(§2) The incubated HepG2 cell lines are treated with PLAG (1˜100 μg/ml), followed by IL-4 and TNF-α, reacted for 1 hour, incubated for 18 hours at 37° C. and the supernatant is isolated. Quantitation of the amount of C3 in the cellular culture medium (supernatant) from HepG2 cells is performed by ELISA using a commercially available monoclonal antibody (mAb, R&D Systems) and the manufacture's protocol; the results are presented in FIGS. 3A-3C. C3 is expressed spontaneously under in vitro culture conditions using 10% FCS added to HepG2 cells incubated for 12 hr. The cells are treated with different doses of PLAG from 1 to 100 μg/ml (FIG. 3A, FIG. 3B) or 10 and 100 μg/ml of S6I (FIG. 3C), reacted with IL-4 and TNF-α for 1 hr and then incubated for 18 hr at 37° C. Cellular viability is confirmed using the WST-1 assay (FIG. 3A)."}, "HepG2 cells": {"system": "HepG2 cells", "test": "WST-1 cell viability assay in HepG2 cells", "assay_type": "cell-based", "conditions": "PLAG 1 to 100 μg/ml", "description": "as §2"}, "[7]": {"test": "Colony forming units (CFUs) in spleen assay in heavily irradiated mice", "assay_type": "in vivo", "conditions": "PLAG 50 mg/kg/d i.p. or p.o.", "description": "Colony Forming Units (CFUs) in Spleen Assay in Vivo: In order to determine the in vivo effect of PLAG on the recovery of hematopoiesis, a CFUs assay is performed in heavily irradiated mice."}, "complement 3": {"system": "complement 3", "test": "Complement 3 activation by chemotherapeutic agents in mouse model", "assay_type": "in vivo", "conditions": "mice; PLAG 50 mg/kg daily 3 weeks with Gemcitabine, Cyclosphosphamide or Tamoxifen", "description": "The effect of PLAG for treatment of chemotherapy-induced thrombocytopenia (CIT) is evaluated in an animal model. Anti-cancer agents (Gemcitabine 50 mg/kg, Cyclosphosphamide 100 mg/kg, or Tamoxifen 50 mg/kg) are dosed daily for 3 weeks; PLAG is also administered at a dose of 50 mg/kg daily for 3 weeks.\nIt is believed that the neutropenia and thrombocytopenia of these agents and other chemotherapeutic agents may be due at least in part to a specific complement-mediated toxicity. This is seen in FIG. 5."}, "[8]": {"system": "hematopoietic stem cells and megakaryocytes", "conditions": "reported in WO 99/26640; cited from earlier work"}}, "data": [{"smiles": "CCCCC/C=C\\C/C=C\\CCCCCCCC(=O)OC(COC(C)=O)COC(=O)CCCCCCCCCCCCCCC", "note": "(racemic) [PLAG, 1-palmitoyl-2-linoleoyl-3-acetylglycerol]", "values": [{"measurement": "IL-4 treatment induced STAT6 phosphorylation", "setting": "STAT6 [1]", "result": "inhibited with increasing PLAG concentrations"}, {"measurement": "STAT6 expression (transcriptional activity, luciferase)", "setting": "STAT6 [2]", "result": "significant, dose-dependent effect"}, {"measurement": "STAT1 expression (transcriptional activity, luciferase)", "setting": "STAT1", "result": "no effect"}, {"measurement": "Expression of C3 in HMC-1 cells", "setting": "C3 [3]; pre-treated with 0.1 and 1 μg/mL PLAG, then IL-4 (5 ng) and TNF-α (10 ng)", "result": "suppressed by PLAG on a concentration dependent basis"}, {"measurement": "Decrease of C3 (ELISA) in HMC-1 cells", "setting": "C3 [4]", "result": "proportional to the concentration of PLAG"}, {"measurement": "Inhibition of C3 expression (RT-PCR) in HepG2", "setting": "C3 [5]; PLAG 1 μg/ml, 2 hours, C3 induced 12 hours with 10% FCS", "result": "somewhat"}, {"measurement": "Inhibition of C3 expression (RT-PCR) in HepG2", "setting": "C3 [5]; PLAG 10 μg/ml, 2 hours, C3 induced 12 hours with 10% FCS", "result": "entirely"}, {"measurement": "Expression of C3 (ELISA, HepG2 supernatant)", "setting": "C3 [6]", "result": "decreased dose-dependently"}, {"measurement": "Cellular propagation and death (WST-1 viability)", "setting": "HepG2 cells", "result": "does not affect"}, {"measurement": "Number of splenic nodules, primitive progenitor cells and megakaryocytes", "setting": "[7]", "result": "marked increase"}, {"measurement": "Complement 3 activation caused by chemotherapeutic agents", "setting": "complement 3", "result": "largely blocked"}, {"measurement": "Growth-stimulating activities of hematopoietic stem cells and megakaryocytes", "setting": "[8]", "result": "have growth-stimulating activities"}]}, {"smiles": "NC(=O)c1cnc(NCCc2ccc(O)c(Cl)c2)nc1NCc1ccccc1", "note": "[S6I, reference compound]", "values": [{"measurement": "Expression of C3 in HMC-1 cells", "setting": "C3 [3]; IL-4 and TNF-α followed by S6I", "result": "comparable"}, {"measurement": "Inhibition of C3 expression (RT-PCR) in HepG2", "setting": "C3 [5]; S6I 10 and 100 μg/ml, compared with PLAG 1 and 10 μg/ml", "result": "comparable"}]}]}
